Experimental data as given in patent publication US20240327364A1, “THERAPEUTIC TARGETING OF GPR68 TO INDUCE FERROPTOSIS” (University Of Maryland, Baltimore, priority 2023, published 2024).

Key:
[1] = biological target: T1, PFTAIRE2 (Homo sapiens, UniProt Q96Q40); experiment: KinomeScan; type: binding; conditions: read-out: % Control
T1 construct: purchased DiscoveRx (Fremont, CA)

[2] = biological target: T2, PKN2 (Homo sapiens, UniProt Q16513); experiment: KinomeScan; type: binding; conditions: read-out: % Control
T2 construct: purchased DiscoveRx (Fremont, CA)

[3] = biological target: T3, ABL1(T315I)-phosphorylated (Homo sapiens, UniProt P00519, T315I); experiment: KinomeScan; type: binding; conditions: read-out: % Control
T3 construct: purchased DiscoveRx

[4] = biological target: T4, ACVR2A (Homo sapiens, UniProt P27037); experiment: KinomeScan; type: binding; conditions: read-out: % Control
T4 construct: purchased DiscoveRx
T4 sequence (P27037 192-485 limits assumed): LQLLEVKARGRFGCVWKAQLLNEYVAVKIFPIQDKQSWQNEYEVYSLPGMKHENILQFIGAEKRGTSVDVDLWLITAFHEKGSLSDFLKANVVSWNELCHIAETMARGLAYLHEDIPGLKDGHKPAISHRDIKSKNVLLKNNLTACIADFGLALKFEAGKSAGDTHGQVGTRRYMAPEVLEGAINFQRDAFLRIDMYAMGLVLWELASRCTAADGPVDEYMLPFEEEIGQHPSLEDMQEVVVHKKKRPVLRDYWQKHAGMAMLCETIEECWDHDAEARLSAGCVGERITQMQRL

[5] = biological target: T5, OT (Homo sapiens, UniProt P30559); experiment: GPCR Profiler; type: cell-based
T5 construct: host or cells: Chem-1 cells expressing Gα15
T5 sequence (P30559 whole entry): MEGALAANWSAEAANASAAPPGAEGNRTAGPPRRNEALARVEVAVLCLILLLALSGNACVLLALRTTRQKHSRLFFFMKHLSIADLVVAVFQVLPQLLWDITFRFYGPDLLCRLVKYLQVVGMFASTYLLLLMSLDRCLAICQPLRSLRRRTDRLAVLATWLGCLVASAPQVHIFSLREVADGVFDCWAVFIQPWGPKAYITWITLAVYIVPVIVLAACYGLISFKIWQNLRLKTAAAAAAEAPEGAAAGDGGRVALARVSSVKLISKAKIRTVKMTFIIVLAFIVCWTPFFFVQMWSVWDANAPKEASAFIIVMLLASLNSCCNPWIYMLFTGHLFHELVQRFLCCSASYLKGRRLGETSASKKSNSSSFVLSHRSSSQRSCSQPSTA

[6] = biological target: T6, ABL1(T315I)-nonphosphorylated (Homo sapiens, UniProt P00519, T315I); experiment: KinomeScan; type: binding; conditions: read-out: % Control
T6 construct: purchased DiscoveRx

[7] = biological target: T7, MST1R (Homo sapiens, UniProt Q04912); experiment: KinomeScan; type: binding; conditions: read-out: % Control
T7 construct: purchased DiscoveRx

[8] = biological target: T8, LPA5 (Homo sapiens, UniProt Q9H1C0); experiment: GPCR Profiler; type: cell-based
T8 construct: host or cells: Chem-1 cells with promiscuous Gα15
T8 sequence (Q9H1C0 whole entry, species assumed): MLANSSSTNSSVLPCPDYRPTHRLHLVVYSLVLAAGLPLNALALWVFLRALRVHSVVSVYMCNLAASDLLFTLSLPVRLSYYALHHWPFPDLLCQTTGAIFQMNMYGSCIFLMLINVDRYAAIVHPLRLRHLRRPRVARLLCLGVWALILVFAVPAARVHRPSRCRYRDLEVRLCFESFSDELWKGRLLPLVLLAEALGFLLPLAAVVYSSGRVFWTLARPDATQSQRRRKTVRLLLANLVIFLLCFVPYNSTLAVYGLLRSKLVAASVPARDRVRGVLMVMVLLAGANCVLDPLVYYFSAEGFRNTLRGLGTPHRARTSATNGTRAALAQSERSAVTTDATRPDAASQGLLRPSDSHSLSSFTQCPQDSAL

[9] = biological target: T9, MARK3 (Homo sapiens, UniProt P27448); experiment: KinomeScan; type: binding; conditions: read-out: % Control
T9 construct: purchased DiscoveRx (Fremont, CA)

[10] = biological target: T10, DRAK2 (Homo sapiens, UniProt O94768); experiment: KinomeScan; type: binding; conditions: read-out: % Control
T10 construct: purchased DiscoveRx (Fremont, CA), KinomeScan service
T10 sequence (O94768 whole entry): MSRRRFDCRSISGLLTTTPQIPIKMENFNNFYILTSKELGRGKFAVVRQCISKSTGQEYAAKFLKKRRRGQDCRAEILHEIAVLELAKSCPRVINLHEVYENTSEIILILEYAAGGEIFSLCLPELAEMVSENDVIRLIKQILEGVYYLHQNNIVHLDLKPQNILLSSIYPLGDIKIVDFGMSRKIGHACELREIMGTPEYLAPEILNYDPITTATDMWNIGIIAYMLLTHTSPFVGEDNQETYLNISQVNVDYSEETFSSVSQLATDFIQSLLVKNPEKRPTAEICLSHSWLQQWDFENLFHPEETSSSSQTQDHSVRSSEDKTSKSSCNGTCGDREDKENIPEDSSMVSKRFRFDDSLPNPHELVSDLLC

[11] = biological target: T11, MUSK (Homo sapiens, UniProt O15146); experiment: KinomeScan; type: binding; conditions: read-out: % Control
T11 construct: purchased DiscoveRx

[12] = biological target: T12, PIP5K2B (Homo sapiens, UniProt P78356); experiment: KinomeScan; type: binding; conditions: read-out: % Control
T12 construct: purchased DiscoveRx (Fremont, CA)
T12 sequence (P78356 whole entry): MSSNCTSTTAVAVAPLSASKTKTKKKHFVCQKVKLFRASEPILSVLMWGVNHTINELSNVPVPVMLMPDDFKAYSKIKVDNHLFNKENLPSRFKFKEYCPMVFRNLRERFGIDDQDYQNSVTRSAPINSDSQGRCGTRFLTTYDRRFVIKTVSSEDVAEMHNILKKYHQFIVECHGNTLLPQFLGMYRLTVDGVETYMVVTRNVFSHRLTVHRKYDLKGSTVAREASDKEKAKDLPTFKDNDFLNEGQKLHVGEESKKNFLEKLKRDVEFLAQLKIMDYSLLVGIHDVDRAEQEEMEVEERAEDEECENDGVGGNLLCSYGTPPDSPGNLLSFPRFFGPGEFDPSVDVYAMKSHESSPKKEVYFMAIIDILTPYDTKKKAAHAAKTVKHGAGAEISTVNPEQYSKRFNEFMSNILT

[13] = biological target: T13, RPS6KA5(Kin.Dom.1-N-terminal) (Homo sapiens, UniProt O75582); experiment: KinomeScan; type: binding; conditions: read-out: % Control
T13 construct: RPS6KA5(Kin.Dom.1-N-terminal); purchased DiscoveRx (Fremont, CA)
T13 sequence (O75582 49-318 limits assumed): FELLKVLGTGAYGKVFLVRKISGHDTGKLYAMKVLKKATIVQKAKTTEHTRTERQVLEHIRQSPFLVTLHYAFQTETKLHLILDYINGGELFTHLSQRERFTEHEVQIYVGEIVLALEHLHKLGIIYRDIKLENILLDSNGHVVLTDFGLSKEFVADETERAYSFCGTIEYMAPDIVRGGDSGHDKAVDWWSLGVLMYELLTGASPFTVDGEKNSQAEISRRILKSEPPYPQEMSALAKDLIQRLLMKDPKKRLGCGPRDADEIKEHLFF

[14] = biological target: T14, EGFR(G719S) (Homo sapiens, UniProt P00533, G719S); experiment: KinomeScan; type: binding; conditions: read-out: % Control
T14 construct: purchased DiscoveRx (Fremont, CA), KinomeScan service
T14 sequence (P00533 25-1210 G719S): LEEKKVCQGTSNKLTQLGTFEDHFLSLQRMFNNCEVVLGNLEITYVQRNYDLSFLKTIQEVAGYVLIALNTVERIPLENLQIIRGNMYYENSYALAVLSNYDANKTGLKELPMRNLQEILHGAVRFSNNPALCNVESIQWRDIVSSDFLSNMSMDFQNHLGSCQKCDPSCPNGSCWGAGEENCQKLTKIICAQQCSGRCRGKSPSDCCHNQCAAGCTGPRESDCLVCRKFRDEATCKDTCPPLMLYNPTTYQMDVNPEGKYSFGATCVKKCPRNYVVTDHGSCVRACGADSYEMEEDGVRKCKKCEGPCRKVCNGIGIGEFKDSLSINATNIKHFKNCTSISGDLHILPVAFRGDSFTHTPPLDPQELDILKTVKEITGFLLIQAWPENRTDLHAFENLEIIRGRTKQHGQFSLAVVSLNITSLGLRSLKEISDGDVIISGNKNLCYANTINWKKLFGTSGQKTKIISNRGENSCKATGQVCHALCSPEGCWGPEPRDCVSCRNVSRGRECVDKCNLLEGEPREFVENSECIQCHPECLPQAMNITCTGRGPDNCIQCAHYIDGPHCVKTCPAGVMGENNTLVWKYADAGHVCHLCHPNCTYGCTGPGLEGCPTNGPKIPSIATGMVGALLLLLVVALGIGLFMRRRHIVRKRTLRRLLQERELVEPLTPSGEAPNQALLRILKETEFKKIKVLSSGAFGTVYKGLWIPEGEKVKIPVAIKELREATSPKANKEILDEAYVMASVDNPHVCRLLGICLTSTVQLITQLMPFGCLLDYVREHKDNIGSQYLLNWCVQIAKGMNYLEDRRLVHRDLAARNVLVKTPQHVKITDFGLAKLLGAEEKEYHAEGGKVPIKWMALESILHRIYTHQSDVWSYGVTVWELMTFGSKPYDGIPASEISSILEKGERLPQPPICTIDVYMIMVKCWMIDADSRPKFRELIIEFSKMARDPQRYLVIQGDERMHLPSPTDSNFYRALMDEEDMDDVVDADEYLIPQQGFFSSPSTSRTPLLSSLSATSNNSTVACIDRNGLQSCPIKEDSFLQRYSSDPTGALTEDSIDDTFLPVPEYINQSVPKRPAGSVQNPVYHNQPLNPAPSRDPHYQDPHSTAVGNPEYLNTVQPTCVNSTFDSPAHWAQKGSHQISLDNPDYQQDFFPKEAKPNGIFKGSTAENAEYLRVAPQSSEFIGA

[15] = biological target: T15, MCHR2 (Homo sapiens, UniProt Q969V1); experiment: GPCR Profiler; type: cell-based
T15 construct: host or cells: Chem-1 cells expressing Gα15
T15 sequence (Q969V1 whole entry, species assumed): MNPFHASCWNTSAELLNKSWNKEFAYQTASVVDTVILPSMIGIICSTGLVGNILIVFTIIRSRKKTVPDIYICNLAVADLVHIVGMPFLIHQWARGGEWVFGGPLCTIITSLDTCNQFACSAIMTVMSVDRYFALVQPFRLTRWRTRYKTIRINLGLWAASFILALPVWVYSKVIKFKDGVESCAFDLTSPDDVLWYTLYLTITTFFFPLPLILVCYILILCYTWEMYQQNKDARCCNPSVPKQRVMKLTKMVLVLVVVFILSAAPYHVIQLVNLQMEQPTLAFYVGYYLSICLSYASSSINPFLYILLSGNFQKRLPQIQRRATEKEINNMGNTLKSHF

[16] = biological target: T16, FER (Homo sapiens, UniProt P16591); experiment: KinomeScan; type: binding; conditions: read-out: % Control
T16 construct: purchased DiscoveRx (Fremont, CA)

[17] = biological target: T17, GCGR (Homo sapiens, UniProt P47871); experiment: GPCR Profiler; type: cell-based
T17 construct: host or cells: Chem-1 cells expressing Gα15
T17 sequence (P47871 26-477): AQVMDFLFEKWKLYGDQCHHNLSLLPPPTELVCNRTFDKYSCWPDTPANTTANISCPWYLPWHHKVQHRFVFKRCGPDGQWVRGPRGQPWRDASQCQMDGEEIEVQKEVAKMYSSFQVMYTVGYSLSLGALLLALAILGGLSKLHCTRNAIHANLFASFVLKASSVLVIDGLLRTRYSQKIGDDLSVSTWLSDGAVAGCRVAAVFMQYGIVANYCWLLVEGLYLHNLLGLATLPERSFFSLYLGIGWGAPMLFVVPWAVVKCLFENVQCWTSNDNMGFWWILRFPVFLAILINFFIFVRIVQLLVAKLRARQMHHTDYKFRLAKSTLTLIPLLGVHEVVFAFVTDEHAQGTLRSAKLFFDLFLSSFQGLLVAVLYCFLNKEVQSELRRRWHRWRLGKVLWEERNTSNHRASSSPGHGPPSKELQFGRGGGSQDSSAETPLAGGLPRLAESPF

[18] = biological target: T18, CDK4-cyclinD3 (Homo sapiens, UniProt P11802); experiment: KinomeScan; type: binding; conditions: read-out: % Control
T18 construct: purchased DiscoveRx (KinomeScan service)

[19] = biological target: T19, SIK2 (Homo sapiens, UniProt Q9H0K1); experiment: KinomeScan; type: binding; conditions: read-out: % Control
T19 construct: purchased DiscoveRx (Fremont, CA)

[20] = biological target: T20, p38-beta (Homo sapiens, UniProt Q15759); experiment: KinomeScan; type: binding; conditions: read-out: % Control
T20 construct: purchased DiscoveRx
T20 sequence (Q15759 whole entry): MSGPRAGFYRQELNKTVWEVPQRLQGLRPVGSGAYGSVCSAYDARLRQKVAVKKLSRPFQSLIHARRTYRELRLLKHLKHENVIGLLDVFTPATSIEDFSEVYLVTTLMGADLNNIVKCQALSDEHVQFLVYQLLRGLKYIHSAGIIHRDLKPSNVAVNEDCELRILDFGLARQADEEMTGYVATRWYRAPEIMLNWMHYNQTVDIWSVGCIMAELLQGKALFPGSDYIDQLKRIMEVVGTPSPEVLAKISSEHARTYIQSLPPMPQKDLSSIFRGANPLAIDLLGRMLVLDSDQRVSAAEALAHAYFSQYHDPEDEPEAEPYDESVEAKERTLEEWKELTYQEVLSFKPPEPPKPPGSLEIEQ

[21] = tested on: T-47D; experiment: Cell Titer-Glo viability, Breast cancer; type: cell-based
Description: OGM2 kills wide variety of cancer cell types. Cell sensitivity can be classified in to Very Sensitive (LC50<2 μM), Sensitive (LC50=2 to 10 μM), Mildly Sensitive (LC50>10 μM), and Refractory (no killing at 10 μM). The listed established cell were incubated with OGM2 at 2 μM or 10 μM for 72 hours under standard cell culture conditions, and relative cell number was assessed using Cell Titer-Glo Luminescent Cell Viability Assay (Promega™) following the manufacturer's instructions. Luminescence was determined using a Cytation 5 reader and Gen5 software package (BioTek™).
Cancer cells, which are very sensitive to killing by OGM2 (LCs <2 μM), with reported mRNA expression of GPR68 and the related proton sensing receptor GPR4. LC50's (concentrations causing 50% lethality) were determined using CellTiter-Glo (Promega™, G7570). Cells were plated in 12-well plates (CELLTREAT Scientific Products, 229112) in 1 ml of DMEM with high glucose, GlutaMAX, HEPES, or RPMI 1640 with Penicillin-Streptomycin (ThermoFisher™, 10564029, 11875119 and 15140122) and 10% FBS. Cells were incubated overnight at 37° C. in 5% CO2. Then 1 mL of fresh media was added with DMSO, OGM, or positive control (Erastin; APExBIO Technology, LLC, B1524) and cells incubated for 3 days. On the third day, all media was removed, cells were rinsed with 1×PBS, PBS was removed, and 200 μL of 1× Passive Lysis Buffer (Promega™, E1941) was added to each well. […]. Subsequently, 20 μL of lysate was added to 100 μL CellTiter-Glo™ reagent on a LUMITRAC 200 plate (Greiner™ bio-one, 82050-726). Plates were briefly spun down and read on a GloMax-Multi Detection System (Promega™).
The cells listed in the tables above were incubated with OGM2 at 2 μM or 10 μM for 72 hours under standard cell culture conditions, and relative cell number was assessed using Cell Titer-Glo Luminescent Cell Viability Assay (Promega™) following the manufacturer's instructions. Luminescence was determined using a Cytation 5 reader and Gen5 software package (BioTek™). RNA expression of GPR68 and GPR4 in the corresponding cancer cell lines are listed, according to the publicly available The Human Protein Atlas version 22.0 and Ensembl version 103.38 (see proteinatlas.org). The consensus normalized expression value (“nTPM”=normalize transcript per million) was calculated as the maximum nTPM value for each gene in the two data sources.

T1 sequence (Q96Q40 whole entry): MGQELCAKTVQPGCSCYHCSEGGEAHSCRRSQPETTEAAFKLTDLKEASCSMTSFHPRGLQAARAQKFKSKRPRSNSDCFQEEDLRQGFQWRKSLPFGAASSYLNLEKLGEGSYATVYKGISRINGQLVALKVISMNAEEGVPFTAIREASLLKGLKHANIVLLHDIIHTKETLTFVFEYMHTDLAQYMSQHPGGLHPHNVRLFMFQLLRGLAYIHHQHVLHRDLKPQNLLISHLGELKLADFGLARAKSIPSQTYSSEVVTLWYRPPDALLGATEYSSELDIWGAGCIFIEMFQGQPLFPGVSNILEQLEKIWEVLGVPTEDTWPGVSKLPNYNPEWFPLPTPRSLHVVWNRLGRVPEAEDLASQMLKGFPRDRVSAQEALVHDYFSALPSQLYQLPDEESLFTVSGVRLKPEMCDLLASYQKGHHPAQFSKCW

Q: Which results are given for `CCc1ccc2c(c1)C1(NN=C(c3cccc4ccccc34)S1)C(=O)N2` (stereo not shown) [OGM1, 5-ethyl-5′-naphthalen-1-ylspiro[1H-indole-3,2′-3H-1,3,4-thiadiazole]-2-one]?
A: remaining binding at 10 µM [1]: 93%; remaining binding at 10 µM [2]: 100%; remaining binding at 10 µM [3]: 72%; remaining binding at 10 µM [4]: 100%; Antagonism ([5]; 10 uM): −2.4; Agonism ([5]; 12.5 uM): 0.7; remaining binding at 10 µM [6]: 73%; remaining binding at 10 µM [7]: 86%; Antagonism ([8]; 10 uM): −16.2; Agonism ([8]; 12.5 uM): −0.1; remaining binding at 10 µM [9]: 100%; remaining binding at 10 µM [10]: 100%; remaining binding at 10 µM [11]: 90%; remaining binding at 10 µM [12]: 100%; remaining binding at 10 µM [13]: 100%; remaining binding at 10 µM [14]: 95%; Antagonism ([15]; 10 uM): −8.2; Agonism ([15]; 12.5 uM): 0.3; remaining binding at 10 µM [16]: 100%; Antagonism ([17]; 10 uM): 6.1; Agonism ([17]; 12.5 uM): −0.1; remaining binding at 10 µM [18]: 76%; remaining binding at 10 µM [19]: 100%; remaining binding at 10 µM [20]: 100%

Q: For `CCc1ccc2c(c1)C1(NN=C(c3ccccc3)S1)C(=O)N2` (stereo not shown) [OGM2], which Class [21] is on record?
A: The Class was “Mildly”.

Q: And the “% Survival 2 μM OGM” value ([21]; 72 hours)?
A: Its value is 76.4%.

Q: And the “% Survival 10 μM OGM” value ([21]; 72 hours)?
A: Its value is 61.7%.

Q: And the CC50 ([21]; Homo sapiens, T47D, 72 hours, read-out: LC50 (the source's name))?
A: Its CC50 is greater than 10 µM.
